Assay results reported in patent publication US12599616B2, “Subtituted sulfonylurea and sulfoximineurea derivatives” (Zydus Lifesciences Limited, priority 2020, dated 2026).

Tested on: IL-1β
Assay: In vitro IL-1β inhibition in PMA-differentiated, LPS-primed, ATP-stimulated THP1 cells
Format: cell-based
Details: Homo sapiens, THP-1; THP1 monocytes differentiated with PMA, primed with 500 ng/ml LPS 4 h, compound 30 min, 5 mM ATP 1 hr; IL-1b in supernatant; read-out: invitro IL-1β inhibitory activity (IC50)
Method: THP1 monocytes were differentiated with PMA (100 ng/ml) and incubated at 37° C. for 20 hrs in presence of 5% CO2. 2×10^5 differentiated cells were plated per well of 96 well tissue culture plates. The cells were primed using 500 ng/ml Lipopolysaccharide and incubating for 4 h under the same condition. The cells were then treated with various concentrations of the compounds for 30 min followed by treatment with 5 mM ATP for 1 hr. The supernatants were collected and analyzed by IL-1b (Mabtech Cat #3415-1H-20) or TNF-a (Mabtech; Cat #3510-1H-20) detection kit. The data were analyzed using GraphPad Prism V7.0. Dose Response Curve (DRC) was constructed to determine the IC50 value by fitting percentage cell survival data to the GraphPad Prism using nonlinear regression analysis.

IC50 [nM] | Compound
11 | CC(C)CN(C)C(C)(C)/C=C/S(=O)(=O)NC(=O)Nc1c2c(cc3c1CCC3)CCC2 [Example 35, (E)-N-((1,2,3,5,6,7-hexahydro-s-indacen-4-yl)carbamoyl)-3-(isobutyl(methyl)amino)-3-methylbut-1-ene-1-sulfonamide]
9.6 | CN(C)C/C=C/S(=O)(=O)NC(=O)Nc1c2c(cc3c1CCC3)CC=C2 [Example 36, (E)-3-(dimethylamino)-N-((1,2,3,7-tetrahydro-s-indacen-4-yl)carbamoyl)prop-1-ene-1-sulfonamide]
12.6 | CC(C)(/C=C/S(=O)(=O)NC(=O)Nc1c2c(cc3c1CCC3)CCC2)N1CCCC1 [Example 42, (E)-N-((1,2,3,5,6,7-hexahydro-s-indacen-4-yl)carbamoyl)-3-methyl-3-(pyrrolidin-1-yl)but-1-ene-1-sulfonamide]
3.8 | CC(C)(/C=C/S(=O)(=NC#N)NC(=O)Nc1c2c(cc3c1CCC3)CCC2)NC(=O)OC(C)(C)C (stereo not drawn) [Example 47, tert-butyl (E)-(4-(N′-cyano-N-((1,2,3,5,6,7-hexahydro-s-indacen-4-yl)carbamoyl)sulfamidimidoyl)-2-methylbut-3-en-2-yl)carbamate]
6.5 | CN(C)C(C)(C)/C=C/S(=O)(=NC#N)NC(=O)Nc1c2c(cc3c1CCC3)CCC2 (stereo not drawn) [Example 49, (E)-N′-cyano-3-(dimethylamino)-N-((1,2,3,5,6,7-hexahydro-s-indacen-4-yl)carbamoyl)-3-methylbut-1-ene-1-sulfonimidamide]

Second part, the molecule before the results:

Compound | IC50 [nM]
CC(C)NC/C=C/S(=O)(=O)NC(=O)Nc1c2c(cc3c1CCC3)CCC2 [Example 1, (E)-N-((1,2,3,5,6,7-hexahydro-s-indacen-4-yl)carbamoyl)-3-(isopropylamino)prop-1-ene-1-sulfonamide] | 43
CC(C)N(C)C/C=C/S(=O)(=O)NC(=O)Nc1c2c(cc3c1CCC3)CCC2 [Example 5, (E)-N-((1,2,3,5,6,7-hexahydro-s-indacen-4-yl)carbamoyl)-3-(isopropyl(methyl)amino)prop-1-ene-1-sulfonamide] | 20
CN(C)C(C)(C)/C=C/S(=O)(=O)NC(=O)Nc1c2c(cc3c1CCC3)CCC2 [Example 6, (E)-3-(dimethylamino)-N-((1,2,3,5,6,7-hexahydro-s-indacen-4-yl)carbamoyl)-3-methylbut-1-ene-1-sulfonamide] | 5.6
O=C(Nc1c2c(cc3c1CCC3)CCC2)NS(=O)(=O)/C=C/CN1CCCC1 [Example 18, (E)-N-((1,2,3,5,6,7-hexahydro-s-indacen-4-yl)carbamoyl)-3-(pyrrolidin-1-yl)prop-1-ene-1-sulfonamide] | 6.6
CCN(C)C(C)(C)/C=C/S(=O)(=O)NC(=O)Nc1c2c(cc3c1CCC3)CCC2 [Example 20, (E)-3-(ethyl(methyl)amino)-N-((1,2,3,5,6,7-hexahydro-s-indacen-4-yl)carbamoyl)-3-methylbut-1-ene-1-sulfonamide] | 9.9
CN(C1CCC1)C(C)(C)/C=C/S(=O)(=O)NC(=O)Nc1c2c(cc3c1CCC3)CCC2 [Example 21, (E)-3-(cyclobutyl(methyl)amino)-N-((1,2,3,5,6,7-hexahydro-s-indacen-4-yl)carbamoyl)-3-methylbut-1-ene-1-sulfonamide] | 6
CC(C)N(C)C(C)(C)/C=C/S(=O)(=O)NC(=O)Nc1c2c(cc3c1CCC3)CCC2 [Example 24, (E)-N-((1,2,3,5,6,7-hexahydro-s-indacen-4-yl)carbamoyl)-3-(isopropyl(methyl)amino)-3-methylbut-1-ene-1-sulfonamide] | 7.5
